Test results reported in PubChem BioAssay AID316 (DTP/NCI, 2004).
Values joined by “and” are separate entries in the source; they are usually repeats but may differ in a detail not shown here. Identical values can stand only once. Toxic doses and inconclusive results are not listed.

Tested on: P1534 leukemia ip, CD2F1 mice, survival T/C
Assay: NCI In Vivo Anticancer Drug Screen. Data for tumor model P1534 Leukemia (intraperitoneal) in CD2F1 (CDF1) mice
Details: higher = longer survival
Method: The antitumor activity of compounds was measured in mice bearing transplantable tumors. Survival or tumor size were measured and the results are expressed as the measurement made in the treated group (T) divided by the measurement made in the vehicle treated control group (C). The tumor model used in this assay is P1534 Leukemia (intraperitoneal) in CD2F1 (CDF1) mice

[1] = endpoint: mean survival time, dose: 1.56 mg/kg/injection, schedule: Q01DX010 (ip), vehicle: saline
[2] = endpoint: mean survival time, dose: 3.13 mg/kg/injection, schedule: Q01DX010 (ip), vehicle: saline
[3] = endpoint: mean survival time, dose: 6.25 mg/kg/injection, schedule: Q01DX010 (ip), vehicle: saline
[4] = endpoint: mean survival time, dose: 12.5 mg/kg/injection, schedule: Q01DX010 (ip), vehicle: saline
[5] = endpoint: mean survival time, dose: 25.0 mg/kg/injection, schedule: Q01DX010 (ip), vehicle: saline
[6] = endpoint: mean survival time, dose: 50.0 mg/kg/injection, schedule: Q01DX010 (ip), vehicle: saline
[7] = endpoint: mean survival time, dose: 100.0 mg/kg/injection, schedule: Q01DX010 (ip), vehicle: saline
[8] = endpoint: mean survival time, dose: 10.0 mg/kg/injection, schedule: Q01DX010 (ip), vehicle: saline
[9] = endpoint: mean survival time, dose: 20.0 mg/kg/injection, schedule: Q01DX010 (ip), vehicle: saline
[10] = endpoint: mean survival time, dose: 40.0 mg/kg/injection, schedule: Q01DX010 (ip), vehicle: saline
[11] = endpoint: mean survival time, dose: 80.0 mg/kg/injection, schedule: Q01DX010 (ip), vehicle: saline
[12] = endpoint: mean survival time, dose: 1.0 mg/kg/injection, schedule: Q01DX010 (ip), vehicle: saline
[13] = endpoint: mean survival time, dose: 2.0 mg/kg/injection, schedule: Q01DX010 (ip), vehicle: saline

COc1ccc2cc3[n+](cc2c1OC)CCc1cc2c(cc1-3)OCO2
T/C [1]: 106 % of control
T/C [2]: 106 % of control
T/C [3]: 110 % of control
T/C [4]: 123 % of control

C/C=C1\CNC2Cc3c([nH]c4ccccc34)C(=O)CC1C2C(=O)OC (configuration not stated)
T/C [4]: 93 % of control
T/C [5]: 103 % of control
T/C [6]: 96 % of control
T/C [7]: 93 % of control

c1ccc(CCSc2ncnc3nc[nH]c23)cc1
T/C (endpoint: mean survival time, dose: 125.0 mg/kg/injection, schedule: Q01DX010 (ip), vehicle: saline): 100 % of control
T/C (endpoint: mean survival time, dose: 500.0 mg/kg/injection, schedule: Q01DX010 (ip), vehicle: saline): 103 % of control

C1CCNC1
T/C [1]: 113 % of control
T/C [2]: 103 % of control
T/C [3]: 100 % of control
T/C [4]: 103 % of control and 96 % of control
T/C [5]: 86 % of control

COc1ccc2[nH]c3c(C)c4ccncc4c(C)c3c2c1
T/C [8]: 105 % of control and 102 % of control
T/C [9]: 110 % of control and 117 % of control
T/C [10]: 115 % of control and 123 % of control
T/C [11]: 122 % of control

Nc1nc(F)nc2c1ncn2C1OC(CO)C(O)C1O (configuration not stated)
T/C [12]: 110 % of control and 100 % of control
T/C [13]: 103 % of control
T/C (endpoint: mean survival time, dose: 4.0 mg/kg/injection, schedule: Q01DX010 (ip), vehicle: saline): 96 % of control
T/C (endpoint: mean survival time, dose: 8.0 mg/kg/injection, schedule: Q01DX010 (ip), vehicle: saline): 92 % of control

O=CC(NC(=O)N(CCCl)N=O)C(O)C(O)C(O)CO (configuration not stated)
T/C (endpoint: median survival time, dose: 0.62 mg/kg/injection, schedule: Q01DX005 (ip), vehicle: other): 110 % of control
T/C (endpoint: median survival time, dose: 2.5 mg/kg/injection, schedule: Q01DX005 (ip), vehicle: other): 156 % of control
T/C (endpoint: median survival time, dose: 5.0 mg/kg/injection, schedule: Q01DX005 (ip), vehicle: other): 224 % of control
T/C (endpoint: median survival time, dose: 10.0 mg/kg/injection, schedule: Q01DX005 (ip), vehicle: other): 89 % of control

C/C=C1/CN[C@H]2Cc3c([nH]c4ccccc34)[C@@H](O)C[C@@H]1C2C(=O)OC (some centres not stated)
T/C (endpoint: mean survival time, dose: 7.5 mg/kg/injection, schedule: Q01DX010 (ip), vehicle: saline): 93 % of control
T/C (endpoint: mean survival time, dose: 15.0 mg/kg/injection, schedule: Q01DX010 (ip), vehicle: saline): 93 % of control
T/C (endpoint: mean survival time, dose: 30.0 mg/kg/injection, schedule: Q01DX010 (ip), vehicle: saline): 96 % of control
T/C (endpoint: mean survival time, dose: 60.0 mg/kg/injection, schedule: Q01DX010 (ip), vehicle: saline): 93 % of control

COc1cc(C(=O)CC2CCCCN2)ccc1O (configuration not stated)
T/C [8]: 100 % of control
T/C [9]: 96 % of control
T/C [10]: 96 % of control
T/C [11]: 93 % of control

CCCNc1ncnc2[nH]ncc12
T/C [2]: 100 % of control
T/C [3]: 88 % of control and 100 % of control
T/C [4]: 111 % of control and 100 % of control
T/C [5]: 94 % of control and 100 % of control

N#C[C@@H]1C2C=CC(CC2)[C@H]1C#N
T/C (endpoint: mean survival time, dose: 0.25 mg/kg/injection, schedule: Q01DX010 (ip), vehicle: saline): 100 % of control
T/C (endpoint: mean survival time, dose: 0.5 mg/kg/injection, schedule: Q01DX010 (ip), vehicle: saline): 103 % of control and 96 % of control
T/C [12]: 103 % of control and 100 % of control
T/C [13]: 103 % of control and 96 % of control

OCCN1CCC(CCCC2CCNCC2)CC1
T/C [4]: 96 % of control
T/C [5]: 93 % of control
T/C [6]: 89 % of control

CCCCNc1ncnc2c1cnn2C
T/C (endpoint: mean survival time, dose: 31.3 mg/kg/injection, schedule: Q01DX010 (ip), vehicle: saline): 100 % of control
T/C (endpoint: mean survival time, dose: 62.5 mg/kg/injection, schedule: Q01DX010 (ip), vehicle: saline): 88 % of control and 100 % of control

C[C@]12CCC(=O)C=C1CC[C@@H]1[C@@H]2[C@@H](O)C[C@@]2(C)[C@H]1CC[C@]2(O)C(=O)CO
T/C (endpoint: mean survival time, dose: 10.0 mg/kg/injection, schedule: Q01DX005 (sc), vehicle: steriod suspending solution): 110 % of control (2×) and 118 % of control
T/C (endpoint: mean survival time, dose: 50.0 mg/kg/injection, schedule: Q01DX005 (sc), vehicle: steriod suspending solution): 104 % of control (2×) and 110 % of control
T/C (endpoint: mean survival time, dose: 100.0 mg/kg/injection, schedule: Q01DX005 (sc), vehicle: steriod suspending solution): 90 % of control and 95 % of control
T/C (endpoint: mean survival time, dose: 200.0 mg/kg/injection, schedule: Q01DX005 (sc), vehicle: steriod suspending solution): 87 % of control and 89 % of control
T/C (endpoint: mean survival time, dose: 250.0 mg/kg/injection, schedule: Q01DX005 (sc), vehicle: steriod suspending solution): 93 % of control

NCCCC(=O)NCCCCCCCCCCNC(=O)CCCN
T/C [4]: 96 % of control
T/C [5]: 93 % of control
T/C [6]: 96 % of control
T/C [7]: 103 % of control
